The results in this text go back to patent publication US20240150358A1, “PURINES AND METHODS OF THEIR USE” (Kineta, Inc., priority 2020, published 2024).

full-length human PIKFYVE, sequence (Q9Y2I7 whole entry S696N/L932S/Q995L/T998S/S1033A/Q1183K): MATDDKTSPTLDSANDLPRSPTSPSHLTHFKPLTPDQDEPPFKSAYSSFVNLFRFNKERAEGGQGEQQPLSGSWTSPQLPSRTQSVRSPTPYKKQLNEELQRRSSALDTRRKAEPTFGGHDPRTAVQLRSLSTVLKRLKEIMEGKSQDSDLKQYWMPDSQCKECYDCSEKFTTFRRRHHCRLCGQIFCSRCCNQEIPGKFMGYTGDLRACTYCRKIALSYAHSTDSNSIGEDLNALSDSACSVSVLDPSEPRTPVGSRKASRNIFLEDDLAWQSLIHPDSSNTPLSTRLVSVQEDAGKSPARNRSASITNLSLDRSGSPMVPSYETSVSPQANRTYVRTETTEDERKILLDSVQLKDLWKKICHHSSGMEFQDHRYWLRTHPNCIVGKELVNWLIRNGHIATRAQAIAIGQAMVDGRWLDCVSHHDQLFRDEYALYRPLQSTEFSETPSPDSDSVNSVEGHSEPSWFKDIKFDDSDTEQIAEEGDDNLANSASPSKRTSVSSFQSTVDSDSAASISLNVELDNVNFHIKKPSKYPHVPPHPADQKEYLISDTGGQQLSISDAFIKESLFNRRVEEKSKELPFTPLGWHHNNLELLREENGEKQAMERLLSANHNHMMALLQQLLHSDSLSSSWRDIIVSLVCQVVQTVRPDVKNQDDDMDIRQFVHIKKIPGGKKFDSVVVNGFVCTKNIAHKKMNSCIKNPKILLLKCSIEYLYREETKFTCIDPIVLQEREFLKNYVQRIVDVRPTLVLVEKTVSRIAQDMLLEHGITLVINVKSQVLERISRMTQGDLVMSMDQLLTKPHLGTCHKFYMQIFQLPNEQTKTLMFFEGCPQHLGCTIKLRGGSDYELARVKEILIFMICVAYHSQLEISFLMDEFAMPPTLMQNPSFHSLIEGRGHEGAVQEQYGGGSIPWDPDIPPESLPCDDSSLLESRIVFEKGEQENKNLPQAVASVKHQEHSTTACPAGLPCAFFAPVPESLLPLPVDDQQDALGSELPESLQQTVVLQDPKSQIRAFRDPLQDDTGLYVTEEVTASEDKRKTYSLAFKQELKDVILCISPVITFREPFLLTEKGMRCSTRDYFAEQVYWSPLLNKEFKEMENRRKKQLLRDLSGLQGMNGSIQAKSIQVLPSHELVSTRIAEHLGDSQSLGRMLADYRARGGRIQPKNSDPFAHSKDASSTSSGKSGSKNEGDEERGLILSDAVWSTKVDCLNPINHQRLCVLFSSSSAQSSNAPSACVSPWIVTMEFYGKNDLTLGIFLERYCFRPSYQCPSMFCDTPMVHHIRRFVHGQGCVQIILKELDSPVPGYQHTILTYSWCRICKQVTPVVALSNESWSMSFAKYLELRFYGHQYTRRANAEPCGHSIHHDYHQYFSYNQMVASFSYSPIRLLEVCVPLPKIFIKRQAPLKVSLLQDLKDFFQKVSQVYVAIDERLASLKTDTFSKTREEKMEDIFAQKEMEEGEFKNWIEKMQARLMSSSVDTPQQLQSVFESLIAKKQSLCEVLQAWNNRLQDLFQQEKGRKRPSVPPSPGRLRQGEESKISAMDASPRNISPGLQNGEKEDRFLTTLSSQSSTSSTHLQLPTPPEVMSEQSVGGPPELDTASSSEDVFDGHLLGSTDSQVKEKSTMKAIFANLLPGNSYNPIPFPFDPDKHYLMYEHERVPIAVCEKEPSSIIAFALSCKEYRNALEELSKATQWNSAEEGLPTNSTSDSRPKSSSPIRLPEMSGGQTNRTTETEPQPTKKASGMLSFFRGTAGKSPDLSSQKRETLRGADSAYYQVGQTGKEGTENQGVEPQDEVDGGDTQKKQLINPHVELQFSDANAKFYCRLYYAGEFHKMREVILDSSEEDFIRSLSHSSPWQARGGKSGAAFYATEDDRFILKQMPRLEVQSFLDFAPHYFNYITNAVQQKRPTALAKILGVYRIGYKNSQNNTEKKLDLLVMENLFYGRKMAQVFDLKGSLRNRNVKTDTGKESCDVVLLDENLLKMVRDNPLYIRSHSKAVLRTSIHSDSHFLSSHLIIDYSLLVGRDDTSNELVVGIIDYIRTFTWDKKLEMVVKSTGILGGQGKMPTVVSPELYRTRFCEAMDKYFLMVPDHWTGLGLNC

In the first test the target is full-length human PIKFYVE (Homo sapiens (Human), UniProt Q9Y2I7, L932S/Q1183K/Q995L/S1033A/S696N/T998S). As to the kind of experiment: PIKfyve biochemical assay (ADP-Glo Kinase assay, Carna Biosciences). As to conditions: ADP-Glo, GST-PIKFYVE, 10 μM to 3 nM; read-out: hPIKfyve IC50. How it is done:
(§1) PIKfyve Biochemical Assay. The biochemical PIKFyve inhibition assays were run by Carna Biosciences according to proprietary methodology based on the Promega ADP-Glo™ Kinase assay. […] GST-PIKFYVE was purified by using glutathione sepharose chromatography and used in an ADP-Glo™ Kinase assay (Promega). Reactions were set up by adding the test compound solution, substrate solution, ATP solution and kinase solution, each at 4× final concentrations. Reactions were prepared with assay buffer (50 mM MOPS, 1 mM DTT, pH7.2), mixed, and incubated in black 384 well polystyrene plates for 1 hour at room temperature. ADPGlo™ reagent was then added for 40 minutes, followed by kinase detection reagent for an additional 40 minutes. The kinase activity was evaluated by detecting relative light units on a luminescence plate reader. Samples were run in duplicate from 10 μM to 3 nM. […] IC50 values were calculated from concentration vs % inhibition curves by fitting to a four-parameter logistic curve.
as §1, with “The” for “PIKfyve Biochemical Assay. The”, “ADP-Glo™” for “ADPGlo™”, “uM” for “μM”, “curve. […]” for “curve.”
On the technique in general: ADP-Glo first removes unused ATP, then detects ADP through luciferase.
In general, IC50 refers to the point on the concentration scale where inhibition reaches its midpoint. Take `Cn1c(C2CCOCC2)nc2c(N3CCOCC3)nc(-n3ccc(-c4cccnc4)n3)nc21` [Compound 19, 4-(9-methyl-2-(3-(pyridin-3-yl)-1H-pyrazol-1-yl)-8-(tetrahydro-2H-pyran-4-yl)-9H-purin-6-yl)morpholine]: the IC50 was in the range of 1000 to 10000 nM. Regarding `Cn1c(-c2ccncc2)nc2c(N3CCOCC3)nc(-c3cccc(C4CCN(C(=O)OC(C)(C)C)CC4)n3)nc21` [Compound 4], the IC50 was in the range of 100 to 1000 nM. Still for that read-out and setting: the same measure for `Cn1ccc(-c2nc(N3CCOCC3)c3nc(-c4ccncc4)n(C)c3n2)n1` [Compound 48]: 100 to 1000 nM. Same read-out and setting: the same measure for `Cn1c(C2CCNC2)nc2c(N3CCOCC3)nc(-n3ccc(-c4ccccc4)n3)nc21` (stereo not drawn) [Compound 90, 4-(9-Methyl-2-(3-phenyl-1H-pyrazol-1-yl)-8-(pyrrolidin-3-yl)-9H-purin-6-yl)morpholine]: 10 to 100 nM; for `Cn1c(-c2ccncc2)nc2nc(-c3ccnc(-c4ccccc4)n3)nc(N3CCOCC3)c21` [Compound 2, 7-methyl-6-(morpholin-4-yl)-2-(2-phenylpyrimidin-4-yl)-8-(pyridin-4-yl)-7H-purine]: 1000 to 10000 nM. Turning to `Cn1c(-c2ccncc2)nc2c(N3CCOCC3)nc(-c3ccc4c(c3)NCCC4)nc21` [Compound 114, 4-(9-methyl-8-(pyridin-4-yl)-2-(1,2,3,4-tetrahydroquinolin-7-yl)-9H-purin-6-yl)morpholine], the IC50 was less than 10 nM. On the same count and under the same terms, the same measure for `Cn1c(-c2ccncc2)nc2c(N3CCOCC3)nc(-n3ccc(-c4cccnc4)n3)nc21` [Compound 7, 9-methyl-6-(morpholin-4-yl)-2-[3-(pyridin-3-yl)-1H-pyrazol-1-yl]-8-(pyridin-4-yl)-9H-purine]: 10 to 100 nM; for `Cn1c(-c2ccncc2)nc2c(N3CCOCC3)nc(-c3ccnc(C4CCCNC4)n3)nc21` (stereo not drawn) [Compound 95, 4-(9-methyl-2-(2-(piperidin-3-yl)pyrimidin-4-yl)-8-(pyridin-4-yl)-9H-purin-6-yl)morpholine]: 100 to 1000 nM; for `Cn1c(-c2ccncc2)nc2c(N3CCOCC3)nc(-n3ccc(C4CCOC4)n3)nc21` (stereo not drawn) [Compound 96, 4-(9-methyl-8-(pyridin-4-yl)-2-(3-(tetrahydrofuran-3-yl)-1H-pyrazol-1-yl)-9H-purin-6-yl)morpholine]: 1000 to 10000 nM. With `Cc1nn(-c2nc(N3CCOCC3)c3nc(-c4ccncc4)n(C)c3n2)c(=O)n1-c1ccccc1` [Compound 24], the IC50 was in the range of 100 to 1000 nM. Same read-out and setting: the same measure for `CC(C)c1ccn(-c2nc(N3CCOCC3)c3nc(-c4ccncc4)n(C)c3n2)n1` [Compound 23]: 100 to 1000 nM; for `CN1Cc2ccc(-c3nc(N4CCOCC4)c4nc(-c5ccncc5)n(C)c4n3)cc2C1=O` [Compound 107, 2-methyl-6-(9-methyl-6-morpholino-8-(pyridin-4-yl)-9H-purin-2-yl)isoindolin-1-one]: less than 10 nM. The same measure, in the same setting: the same measure for `Cn1c(C2CCNCC2)nc2c(N3CCOCC3)nc(-n3ccc(-c4ccccc4)n3)nc21` [Compound 11]: 100 to 1000 nM; for `CN1CC(c2ccn(-c3nc(N4CCOCC4)c4nc(-c5ccncc5)n(C)c4n3)n2)CCC1=O` (stereo not drawn) [Compound 88, 1-methyl-5-(1-(9-methyl-6-morpholino-8-(pyridin-4-yl)-9H-purin-2-yl)-1H-pyrazol-3-yl)piperidin-2-one]: less than 10 nM. Same read-out and setting: the same measure for `Cn1c(C2CNC2)nc2c(N3CCOCC3)nc(-n3ccc(-c4ccccc4)n3)nc21` [Compound 83, 4-(8-(azetidin-3-yl)-9-methyl-2-(3-phenyl-1H-pyrazol-1-yl)-9H-purin-6-yl)morpholine]: 10 to 100 nM; for `Cc1cccc(/C=N/Nc2nc(N3CCOCC3)c3nc(-c4ccncc4)sc3n2)c1` [Compound 121]: less than 10 nM; for `CN1CC(c2nc3c(N4CCOCC4)nc(-n4ccc(-c5ccccc5)n4)nc3n2C)C1` [Compound 81, 4-(9-methyl-8-(1-methylazetidin-3-yl)-2-(3-phenyl-1H-pyrazol-1-yl)-9H-purin-6-yl)morpholine]: 100 to 1000 nM.

With `c1ccc(-n2ccc(-c3nc(N4CCOCC4)c4cc(-c5ccncc5)sc4n3)n2)cc1` [Compound 124], the IC50 fell in the range of 10 to 100 nM. Still for that read-out and setting: the same measure for `Cn1c(-c2ccncc2)nc2c(N3CCOCC3)nc(-n3ccc(C4CCNCC4)n3)nc21` [Compound 21]: 10 to 100 nM; for `Cn1c(-c2ccncc2)nc2c(N3CCOCC3)nc(-c3nccc(C4CC4)n3)nc21` [Compound 103, 4-(2-(4-cyclopropylpyrimidin-2-yl)-9-methyl-8-(pyridin-4-yl)-9H-purin-6-yl)morpholine]: 10 to 100 nM; for `Cn1c(C2=CCOCC2)nc2c(N3CCOCC3)nc(-n3ccc(-c4cccc(C#N)c4)n3)nc21` [Compound 36, 3-{1-[8-(3,6-dihydro-2H-pyran-4-yl)-9-methyl-6-(morpholin-4-yl)-9H-purin-2-yl]-1H-pyrazol-3-yl}benzonitrile]: 1000 to 10000 nM. In the case of `Cn1c(-c2ccncc2)nc2c(N3CCOCC3)nc(-n3ccc(CC4CNC4)n3)nc21` [Compound 80, 4-(2-(3-(azetidin-3-ylmethyl)-1H-pyrazol-1-yl)-9-methyl-8-(pyridin-4-yl)-9H-purin-6-yl)morpholine], the IC50 was 100 to 1000 nM. On the same count and under the same terms, the result for `Cn1c(C2CCOCC2)nc2c(N3CCOCC3)nc(-n3ccc(C4CCCNC4)n3)nc21` (stereo not drawn) [Compound 16] reads 1000 to 10000 nM; that for `Cn1c(-c2ccncc2)nc2c(N3CCOCC3)nc(-c3ccn(-c4ccccc4)n3)nc21` [Compound 46, 9-methyl-6-(morpholin-4-yl)-2-(1-phenyl-1H-pyrazol-3-yl)-8-(pyridin-4-yl)-9H-purine], 10 to 100 nM.

As to `COc1ccc(-c2nc(N3CCOCC3)c3nc(-c4ccncc4)n(C)c3n2)cc1OC` [Compound 106, 4-(2-(3,4-dimethoxyphenyl)-9-methyl-8-(pyridin-4-yl)-9H-purin-6-yl)morpholine], the IC50 was less than 10 nM.

Regarding `CCn1c(-c2ccncc2)nc2c(N3CCOCC3)nc(-n3ccc(-c4ccccc4)n3)nc21` [Compound 5], the IC50 was in the range of 10 to 100 nM.

Turning to `Cn1c(-c2ccncc2)nc2c(N3CCOCC3)nc(-c3ccnc(C(F)(F)F)n3)nc21` [Compound 94, 4-(9-methyl-8-(pyridin-4-yl)-2-(2-(trifluoromethyl)pyrimidin-4-yl)-9H-purin-6-yl)morpholine], the IC50 lay within 10 to 100 nM. Still for that read-out and setting: the result for `Cn1c(C2=CCOCC2)nc2c(N3CCOCC3)nc(-n3ccc(-c4ccccc4)n3)nc21` [Compound 14] reads 10 to 100 nM; that for `Cn1c(-c2ccncc2)nc2c(N3CCOCC3)nc(-n3ccc(C(F)(F)F)n3)nc21` [Compound 100, 4-(9-methyl-8-(pyridin-4-yl)-2-(3-(trifluoromethyl)-1H-pyrazol-1-yl)-9H-purin-6-yl)morpholine], less than 10 nM; that for `CS(=O)(=O)N1CCN(Cc2cc3c(N4CCOCC4)nc(-c4cccc5[nH]ncc45)nc3s2)CC1` [Compound 117], 100 to 1000 nM.

For `Cn1c(-c2ccncc2)nc2c(N3CCOCC3)nc(N3CCC(F)(F)C3)nc21` [Compound 101, 4-(2-(3,3-difluoropyrrolidin-1-yl)-9-methyl-8-(pyridin-4-yl)-9H-purin-6-yl)morpholine], the IC50 lay within 10 to 100 nM. The same measure, in the same setting: the same measure for `Cn1c(C2CCOCC2)nc2c(N3CCOCC3)nc(-n3ccc(-c4ccccc4)n3)nc21` [Compound 12]: 100 to 1000 nM; for `Cc1cccc(/C=N/Nc2nc(N3CCOCC3)c3nc(-c4ccncc4)oc3n2)c1` [Compound 120]: less than 10 nM.

In the case of `c1ccc(-c2nccc(-c3nc(N4CCOCC4)c4nc(-c5ccncc5)sc4n3)n2)cc1` [Compound 123], the IC50 is 10 to 100 nM. `c1ccc(-c2nc(-c3nc(N4CCOCC4)c4nc(-c5ccncc5)[nH]c4n3)no2)cc1` [Compound 109, 4-(2-(5-phenyl-1,2,4-oxadiazol-3-yl)-8-(pyridin-4-yl)-9H-purin-6-yl)morpholine]: the IC50 was in the range of 10 to 100 nM.

Take `Cn1c(-c2ccncc2)nc2c(N3CCOCC3)nc(-n3ccc(C4CCCN(C(=O)OC(C)(C)C)C4)n3)nc21` (stereo not drawn) [Compound 29]: the IC50 is 100 to 1000 nM. Same read-out and setting: the same measure for `Cn1c(-c2ccncc2)nc2c(N3CCOCC3)nc(-n3ccc(C4CCCNC4)n3)nc21` (stereo not drawn) [Compound 17]: 100 to 1000 nM; for `Cn1c(-c2ccncc2)nc2c(N3CCOCC3)nc(-c3ccc4c(c3)OCCO4)nc21` [Compound 45]: 10 to 100 nM; for `Cn1c(-c2ccncc2)nc2c(N3CCOCC3)ncnc21` [Compound 8]: 100 to 1000 nM. The same measure, in the same setting: the result for `Cn1c(-c2ccncc2)nc2c(N3CCOCC3)nc(-n3ccc(-c4cncnc4)n3)nc21` [Compound 82, 4-(9-methyl-8-(pyridin-4-yl)-2-(3-(pyrimidin-5-yl)-1H-pyrazol-1-yl)-9H-purin-6-yl)morpholine] reads 10 to 100 nM.

The same test, now with this note: values plotted in FIG. 7; read-out: PIKFYVE Biochemistry (IC50).
As for `O=c1ccn(Cc2nc(N3CCOCC3)cc(-n3nccc3-c3ccccc3)n2)cc1`, the IC50 was greater than 10000 nM. Same read-out and setting: the result for `O=c1c(CCOc2cccnc2)cc2ncncc2n1-c1ccccc1` reads greater than 10000 nM.
